Laboratory results: patent US12077503B2, “Substituted cyclic amides and their use as herbicides” (FMC CORPORATION, priority 2015, dated 2024)

Legend:
Assay type in all cases: in vivo
[1] = system: barnyardgrass (Echinochloa crus-galli); test: Test A preemergence; settings: Echinochloa crus-galli, pre-emergence, 240 h, Preemergence; for pest or weed control at 31 g/ha: 31 g ai/ha, 0 to 100 scale where 0 is no effect and 100 is complete control, read-out: Barnyardgrass plant response rating; for pest or weed control at 125 g/ha: 125 g ai/ha, 0 to 100 scale (0 no effect, 100 complete control), read-out: Plant response rating, Barnyardgrass
Method in brief: (§1)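 Visual injury scores from 0, no effect, to 100, complete control, were assigned versus untreated controls roughly 10 d after treatment in the greenhouse. Test chemicals, formulated with surfactant in a non-phytotoxic solvent, were applied to planted seeds as a preemergence soil spray or postemergence to one- to two-leaf plants 2 to 10 cm tall, in loam–sand soil.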

Kochia (Kochia scoparia) [2] = test: Test A preemergence; settings: Bassia scoparia, pre-emergence, 240 h, Preemergence; for pest or weed control at 31 g/ha: 31 g ai/ha, 0 to 100 scale where 0 is no effect and 100 is complete control, read-out: Kochia plant response rating; for pest or weed control at 125 g/ha: 125 g ai/ha, 0 to 100 scale (0 no effect, 100 complete control), read-out: Plant response rating, Kochia
Method in brief: as §1

[3] = system: giant foxtail (Setaria faberii); test: Test A preemergence; settings: Setaria faberi, pre-emergence, 240 h, Preemergence; for pest or weed control at 31 g/ha: 31 g ai/ha, 0 to 100 scale where 0 is no effect and 100 is complete control, read-out: Foxtail, Giant plant response rating; for pest or weed control at 125 g/ha: 125 g ai/ha, 0 to 100 scale (0 no effect, 100 complete control), read-out: Plant response rating, Foxtail, Giant
Method in brief: as §1

[4] = system: ryegrass, Italian (Italian ryegrass, Lolium multiflorum); test: Test A preemergence; settings: Lolium multiflorum, pre-emergence, 240 h, Preemergence; for pest or weed control at 31 g/ha: 31 g ai/ha, 0 to 100 scale where 0 is no effect and 100 is complete control, read-out: Ryegrass, Italian plant response rating; for pest or weed control at 125 g/ha: 125 g ai/ha, 0 to 100 scale (0 no effect, 100 complete control), read-out: Plant response rating, Ryegrass, Italian
Method in brief: as §1

[5] = system: ragweed (common ragweed, Ambrosia elatior); test: Test A preemergence; settings: Ambrosia artemisiifolia, pre-emergence, 240 h, Preemergence; for pest or weed control at 31 g/ha: 31 g ai/ha, 0 to 100 scale where 0 is no effect and 100 is complete control, read-out: Ragweed plant response rating; for pest or weed control at 125 g/ha: 125 g ai/ha, 0 to 100 scale (0 no effect, 100 complete control), read-out: Plant response rating, Ragweed
Method in brief: as §1

[6] = system: pigweed (Amaranthus retroflexus); test: Test A preemergence; settings: Amaranthus retroflexus, pre-emergence, 240 h, Preemergence; for pest or weed control at 31 g/ha: 31 g ai/ha, 0 to 100 scale where 0 is no effect and 100 is complete control, read-out: Pigweed plant response rating; for pest or weed control at 125 g/ha: 125 g ai/ha, 0 to 100 scale (0 no effect, 100 complete control), read-out: Plant response rating, Pigweed
[7] = system: sedge, umbrella (small-flower umbrella sedge, Cyperus difformis); test: Test B flooded paddy test; settings: Cyperus difformis, 360 h, Flood, 250 g ai/ha; visually evaluated after 13 to 15 d; read-out: Plant response rating, Sedge, Umbrella (0 to 100 scale where 0 is no effect and 100 is complete control)
Method in brief: (§2)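 Response scored visually against untreated controls, 0 = no effect and 100 = complete control, 13–15 d after treatment in the greenhouse. Compounds added to paddy water held 3 cm above soil surface. Treatment given at 2-leaf stage.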

[8] = system: barnyardgrass (Echinochloa crus-galli); test: Test B flooded paddy test; settings: Echinochloa crus-galli, 360 h, Flood, 250 g ai/ha; visually evaluated after 13 to 15 d; read-out: Plant response rating, Barnyardgrass (0 to 100 scale where 0 is no effect and 100 is complete control)
Method in brief: as §2

[9] = system: ducksalad (Heteranthera limosa); test: Test B flooded paddy test; settings: Heteranthera limosa, 360 h, Flood, 250 g ai/ha; visually evaluated after 13 to 15 d; read-out: Plant response rating, Ducksalad (0 to 100 scale where 0 is no effect and 100 is complete control)
Method in brief: as §2

rice (Oryra sativa) = test: Test B flooded paddy test; settings: Oryza sativa, 360 h, Flood, 250 g ai/ha; visually evaluated after 13 to 15 d; read-out: Plant response rating, Rice (0 to 100 scale where 0 is no effect and 100 is complete control)
Method in brief: as §2

[10] = system: Galium (catchweed bedstraw, Galium aparine); test: Test A postemergence; settings: Galium, post-emergence, 240 h, Postemergence, read-out: Galium plant response rating (0 to 100 scale); for pest or weed control at 125 g/ha: 125 g ai/ha, visual rating about 10 d after treatment; for pest or weed control at 31 g/ha: 31 g ai/ha, 0 is no effect, 100 is complete control
Method in brief: as §1

[11] = system: barnyardgrass (Echinochloa crus-galli); test: Test A postemergence; settings: Echinochloa crus-galli, post-emergence, 240 h, Postemergence; for pest or weed control at 125 g/ha: 125 g ai/ha, visual rating about 10 d after treatment, read-out: Barnyardgrass plant response rating (0 to 100 scale, 0 no effect, 100 complete control); for pest or weed control at 31 g/ha: 31 g ai/ha, 0 is no effect, 100 is complete control, read-out: Barnyardgrass plant response rating (0 to 100 scale)
Method in brief: as §1

Kochia (Kochia scoparia) [12] = test: Test A postemergence; settings: Bassia scoparia, post-emergence, 240 h, Postemergence, read-out: Kochia plant response rating (0 to 100 scale); for pest or weed control at 125 g/ha: 125 g ai/ha, visual rating about 10 d after treatment; for pest or weed control at 31 g/ha: 31 g ai/ha, 0 is no effect, 100 is complete control
Method in brief: as §1

[13] = system: giant foxtail (Setaria faberii); test: Test A postemergence; settings: Setaria faberi, post-emergence, 240 h, Postemergence, read-out: Foxtail, Giant plant response rating (0 to 100 scale); for pest or weed control at 125 g/ha: 125 g ai/ha, visual rating about 10 d after treatment; for pest or weed control at 31 g/ha: 31 g ai/ha, 0 is no effect, 100 is complete control
Method in brief: as §1

[14] = system: ryegrass, Italian (Italian ryegrass, Lolium multiflorum); test: Test A postemergence; settings: Lolium multiflorum, post-emergence, 240 h, Postemergence, read-out: Ryegrass, Italian plant response rating (0 to 100 scale); for pest or weed control at 125 g/ha: 125 g ai/ha, visual rating about 10 d after treatment; for pest or weed control at 31 g/ha: 31 g ai/ha, 0 is no effect, 100 is complete control
Method in brief: as §1

[15] = system: wheat (Triticum aestivum); test: Test A postemergence; settings: Triticum aestivum, post-emergence, 240 h, Postemergence, read-out: Wheat plant response rating (0 to 100 scale); for plant injury at 125 g/ha: 125 g ai/ha, visual rating about 10 d after treatment; for plant injury at 31 g/ha: 31 g ai/ha, 0 is no effect, 100 is complete control
Method in brief: as §1

corn (Zea mays) = test: Test A postemergence; settings: Zea mays, post-emergence, 240 h, Postemergence, read-out: Corn plant response rating (0 to 100 scale); for plant injury at 125 g/ha: 125 g ai/ha, visual rating about 10 d after treatment; for plant injury at 31 g/ha: 31 g ai/ha, 0 is no effect, 100 is complete control
Method in brief: as §1

[16] = system: blackgrass (Alopecurus myosuroides); test: Test A postemergence; settings: Alopecurus myosuroides, post-emergence, 240 h, Postemergence, read-out: Blackgrass plant response rating (0 to 100 scale); for pest or weed control at 125 g/ha: 125 g ai/ha, visual rating about 10 d after treatment; for pest or weed control at 31 g/ha: 31 g ai/ha, 0 is no effect, 100 is complete control
Method in brief: as §1

[17] = system: ragweed (common ragweed, Ambrosia elatior); test: Test A postemergence; settings: Ambrosia artemisiifolia, post-emergence, 240 h, Postemergence, read-out: Ragweed plant response rating (0 to 100 scale); for pest or weed control at 125 g/ha: 125 g ai/ha, visual rating about 10 d after treatment; for pest or weed control at 31 g/ha: 31 g ai/ha, 0 is no effect, 100 is complete control
Method in brief: as §1

[18] = system: pigweed (Amaranthus retroflexus); test: Test A postemergence; settings: Amaranthus retroflexus, post-emergence, 240 h, Postemergence, read-out: Pigweed plant response rating (0 to 100 scale); for pest or weed control at 125 g/ha: 125 g ai/ha, visual rating about 10 d after treatment; for pest or weed control at 31 g/ha: 31 g ai/ha, 0 is no effect, 100 is complete control
Method in brief: as §1

SMILES | pest or weed control at 31 g/ha [1] [%] | pest or weed control at 125 g/ha [1] [%] | pest or weed control at 31 g/ha (Kochia (Kochia scoparia) [2]) [%] | pest or weed control at 125 g/ha (Kochia (Kochia scoparia) [2]) [%] | pest or weed control at 31 g/ha [3] [%] | pest or weed control at 125 g/ha [3] [%] | pest or weed control at 31 g/ha [4] [%] | pest or weed control at 125 g/ha [4] [%] | pest or weed control at 31 g/ha [5] [%] | pest or weed control at 125 g/ha [5] [%] | pest or weed control at 31 g/ha [6] [%] | pest or weed control at 125 g/ha [6] [%] | pest or weed control at 250 g/ha [7] [%] | pest or weed control at 250 g/ha [8] [%] | pest or weed control at 250 g/ha [9] [%] | pest or weed control at 250 g/ha (rice (Oryra sativa)) [%] | pest or weed control at 125 g/ha [10] [%] | pest or weed control at 31 g/ha [10] [%] | pest or weed control at 125 g/ha [11] [%] | pest or weed control at 31 g/ha [11] [%] | further results
Cc1cccc([C@H]2CN(C)C(=O)[C@@H]2C(=O)Nc2cnccc2C)c1 [Compound 1344] | 0 | 0 | 0 | 0 | 0 | 0 | 0 | 0 | 0 | 0 | 0 | 0 | 0 | 0 | 0 | 0 | 0 | 0 | 0 | 0 | pest or weed control at 125 g/ha (Kochia (Kochia scoparia) [12]): 0%; pest or weed control at 31 g/ha (Kochia (Kochia scoparia) [12]): 0%; pest or weed control at 125 g/ha [13]: 0%; pest or weed control at 31 g/ha [13]: 0%; pest or weed control at 125 g/ha [14]: 0%; pest or weed control at 31 g/ha [14]: 0%; plant injury at 125 g/ha [15]: 0%; plant injury at 31 g/ha [15]: 0%; plant injury at 125 g/ha (corn (Zea mays)): 0%; plant injury at 31 g/ha (corn (Zea mays)): 0%; pest or weed control at 125 g/ha [16]: 0%; pest or weed control at 31 g/ha [16]: 0%; pest or weed control at 125 g/ha [17]: 0%; pest or weed control at 31 g/ha [17]: 0%; pest or weed control at 125 g/ha [18]: 0%; pest or weed control at 31 g/ha [18]: 0%
CN1C[C@H](c2ccc3c(c2)OC(F)(F)O3)[C@@H](C(=O)Nc2cnccc2C(F)(F)F)C1=O [Compound 1354] | 0 | 80 | 0 | 20 | 30 | 100 | 0 | 20 | 20 | 0 | 0 | 20 | 0 | 0 | 0 | 0 | 40 | 20 | 20 | 0 | pest or weed control at 125 g/ha (Kochia (Kochia scoparia) [12]): 20%; pest or weed control at 31 g/ha (Kochia (Kochia scoparia) [12]): 0%; pest or weed control at 125 g/ha [13]: 60%; pest or weed control at 31 g/ha [13]: 0%; pest or weed control at 125 g/ha [14]: 0%; pest or weed control at 31 g/ha [14]: 0%; plant injury at 125 g/ha [15]: 0%; plant injury at 31 g/ha [15]: 0%; plant injury at 125 g/ha (corn (Zea mays)): 0%; plant injury at 31 g/ha (corn (Zea mays)): 0%; pest or weed control at 125 g/ha [16]: 0%; pest or weed control at 31 g/ha [16]: 0%; pest or weed control at 125 g/ha [17]: 0%; pest or weed control at 31 g/ha [17]: 0%; pest or weed control at 125 g/ha [18]: 0%; pest or weed control at 31 g/ha [18]: 0%
